# From patent US20260283966A1, “PROTEIN PARTICLES AND METHODS OF MAKING AND USING THE SAME” (Dairy Management Inc., priority 2023, published 2026)
# Assay: ABTS radical scavenging capacity
# Format: biochemical
# Details: 0.05 mg mL^−1, all treatments
# Experimental: ABTS radical scavenging capacity was measured according to the previously published protocol with some modifications (Dong et al., 2016). The modifications are as follow: samples were dissolved in phosphate buffer (pH 7.4) to a concentration of 0.05 mg mL^−1. Next, a 200 μl aliquot of the sample was mixed with 20 μl of the ABTS working solution and the mixture was stored in dark for 20 min at room temperature (~25° C.).
smiles,measurement,value
"N[C@@H](Cc1c[nH]c2ccccc12)C(=O)O [Trp, L-Tryptophan]",relative ABTS radical scavenging capacity,strong relative ABTS radical scavenging capacity and was not influenced by treatments
